Values belong to the molecule of their own block, whether it stands above or below them.
Assays:
[1] = target: T1, Tyrosine-protein kinase JAK3 (Homo sapiens) (UniProt P52333); experiment: Selectivity interaction (KinomeScan (DiscoverX)) EUB0001049a JAK3; settings: at 1 µM
T1 sequence (whole entry): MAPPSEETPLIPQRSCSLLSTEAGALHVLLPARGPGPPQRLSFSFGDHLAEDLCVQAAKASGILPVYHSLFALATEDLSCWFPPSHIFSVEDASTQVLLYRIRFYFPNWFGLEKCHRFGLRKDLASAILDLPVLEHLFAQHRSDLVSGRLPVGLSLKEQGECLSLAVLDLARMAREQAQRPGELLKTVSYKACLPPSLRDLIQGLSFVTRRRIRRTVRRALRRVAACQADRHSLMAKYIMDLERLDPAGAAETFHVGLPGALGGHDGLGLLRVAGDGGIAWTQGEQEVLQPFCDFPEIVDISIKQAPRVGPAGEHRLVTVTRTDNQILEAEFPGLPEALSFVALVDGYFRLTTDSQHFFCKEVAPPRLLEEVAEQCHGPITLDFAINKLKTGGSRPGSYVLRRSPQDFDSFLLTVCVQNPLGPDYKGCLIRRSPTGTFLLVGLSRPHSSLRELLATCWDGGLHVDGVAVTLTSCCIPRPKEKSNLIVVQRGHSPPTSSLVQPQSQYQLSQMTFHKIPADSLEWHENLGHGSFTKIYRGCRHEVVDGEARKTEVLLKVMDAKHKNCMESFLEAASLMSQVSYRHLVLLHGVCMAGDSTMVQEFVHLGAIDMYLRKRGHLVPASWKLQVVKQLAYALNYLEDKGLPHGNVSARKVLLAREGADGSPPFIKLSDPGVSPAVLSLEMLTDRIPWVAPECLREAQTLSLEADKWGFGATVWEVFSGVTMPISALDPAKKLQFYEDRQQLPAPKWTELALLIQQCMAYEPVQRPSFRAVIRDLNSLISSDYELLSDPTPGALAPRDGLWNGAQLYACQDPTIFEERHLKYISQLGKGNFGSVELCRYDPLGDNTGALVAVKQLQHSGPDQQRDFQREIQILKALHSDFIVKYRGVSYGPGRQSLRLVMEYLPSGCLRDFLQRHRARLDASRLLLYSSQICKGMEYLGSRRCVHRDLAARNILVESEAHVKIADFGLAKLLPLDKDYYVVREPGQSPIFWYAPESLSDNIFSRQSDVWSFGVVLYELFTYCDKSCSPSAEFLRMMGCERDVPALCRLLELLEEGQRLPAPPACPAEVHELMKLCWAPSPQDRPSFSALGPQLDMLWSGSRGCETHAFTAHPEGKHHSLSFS

[2] = target: [Pyruvate dehydrogenase (acetyl-transferring)] kinase isozyme 1, mitochondrial (Homo sapiens, UniProt Q15118)
[3] = target: T2, Serine/threonine-protein kinase LATS2 (Homo sapiens) (UniProt Q9NRM7); experiment: Selectivity interaction (KinomeScan (DiscoverX)) EUB0000045b LATS2
T2 sequence (whole entry): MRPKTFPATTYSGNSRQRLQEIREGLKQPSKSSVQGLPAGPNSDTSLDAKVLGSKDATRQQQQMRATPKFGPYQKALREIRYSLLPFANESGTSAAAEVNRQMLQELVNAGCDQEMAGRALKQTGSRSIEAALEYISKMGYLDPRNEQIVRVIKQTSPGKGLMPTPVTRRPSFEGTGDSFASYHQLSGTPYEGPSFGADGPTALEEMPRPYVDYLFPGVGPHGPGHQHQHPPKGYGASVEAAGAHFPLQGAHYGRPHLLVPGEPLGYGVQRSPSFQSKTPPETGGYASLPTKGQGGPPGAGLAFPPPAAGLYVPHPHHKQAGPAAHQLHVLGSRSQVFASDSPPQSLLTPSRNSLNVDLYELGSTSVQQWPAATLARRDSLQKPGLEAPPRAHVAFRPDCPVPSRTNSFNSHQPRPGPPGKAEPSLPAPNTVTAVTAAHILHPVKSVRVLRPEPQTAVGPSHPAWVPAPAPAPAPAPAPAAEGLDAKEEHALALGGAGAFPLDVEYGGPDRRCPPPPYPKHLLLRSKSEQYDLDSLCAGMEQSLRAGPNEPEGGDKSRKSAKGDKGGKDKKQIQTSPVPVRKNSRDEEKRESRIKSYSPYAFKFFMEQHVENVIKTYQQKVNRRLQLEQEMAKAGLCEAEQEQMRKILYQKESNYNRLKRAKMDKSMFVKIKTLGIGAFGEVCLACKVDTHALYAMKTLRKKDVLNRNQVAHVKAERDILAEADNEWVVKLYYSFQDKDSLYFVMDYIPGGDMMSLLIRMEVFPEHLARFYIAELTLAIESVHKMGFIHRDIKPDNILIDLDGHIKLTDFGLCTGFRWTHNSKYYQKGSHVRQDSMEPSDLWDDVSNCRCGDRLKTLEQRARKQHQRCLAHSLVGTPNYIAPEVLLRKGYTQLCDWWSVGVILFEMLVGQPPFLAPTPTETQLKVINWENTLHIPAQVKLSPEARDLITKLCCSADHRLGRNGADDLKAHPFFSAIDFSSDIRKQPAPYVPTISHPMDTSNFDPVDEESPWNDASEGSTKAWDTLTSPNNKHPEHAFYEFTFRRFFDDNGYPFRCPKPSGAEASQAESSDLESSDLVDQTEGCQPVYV

Chain of [Pyruvate dehydrogenase (acetyl-transferring)] kinase isozyme 1, mitochondrial (Q15118 whole entry): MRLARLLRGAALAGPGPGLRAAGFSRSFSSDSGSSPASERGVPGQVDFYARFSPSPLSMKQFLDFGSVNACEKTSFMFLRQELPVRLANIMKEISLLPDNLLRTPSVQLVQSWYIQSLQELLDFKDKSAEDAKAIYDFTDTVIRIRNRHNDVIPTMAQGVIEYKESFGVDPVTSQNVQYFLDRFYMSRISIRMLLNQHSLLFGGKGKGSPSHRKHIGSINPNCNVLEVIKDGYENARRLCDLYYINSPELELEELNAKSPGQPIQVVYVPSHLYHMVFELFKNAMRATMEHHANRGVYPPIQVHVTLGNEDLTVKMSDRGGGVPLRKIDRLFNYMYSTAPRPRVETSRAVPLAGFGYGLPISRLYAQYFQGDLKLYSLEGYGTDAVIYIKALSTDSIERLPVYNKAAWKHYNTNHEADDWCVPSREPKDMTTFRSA

Compound: COc1cc(Nc2nc(C)cc(-c3cnn4nc(OC)ccc34)n2)cc(C(F)(F)F)c1
% of control [1]: 93%

IC50 [2]: > 10 µM
Compound: CCc1cccc(CC)c1NC(=O)c1nn(C)c2c1CCc1cnc(Nc3ccc(C(=O)NC4CCN(C)CC4)cc3OC(F)(F)F)nc1-2

Compound: C=CC(=O)Nc1cc(-n2c(=O)ccc3cnc4ccc(-c5ccc(NS(C)(=O)=O)cc5)cc4c32)ccc1C
% of control ([3]; at 1 µM): 100% | % of control ([3]; at 10 µM): 81%

Source: ChEMBL document CHEMBL5465560, “Selectivity Literature for EUbOPEN Chemogenomic Library” (2024)
